# Test results as given in US6710075B2, “Therapeutic compounds and methods” (The Government of the State of Sarawak, Malaysia, priority 2000, dated 2004).
# Like-named read-outs stand apart in the source and are kept apart here.
# What was measured:
# [1] = test system: PC3 human prostate tumour cells; assay: Mouse xenograft tumour model; format: in vivo; conditions: 3 mg/kg intraperitoneal three times a week
# Description: Athymic Balb/c nude mice (Rygard and Povisen, 1969, Acta Pathol Microbiol Scand, 77: 758) were inoculated subcutaneously in the dorsal flank with 2×10^6 PC3 cells. Compound A was administered (3 mg/kg) after eight days when the tumours became palpable by intraperitoneal injection three times a week. Compound A was first solubilized in ethanol then mixed 1:1 with cremaphore and diluted in saline for injection. Control animals were treated in an analogous manner with the same vehicle but lacking Compound A. (A) Effect of Compound A on mean tumour volume. Tumour volumes were measured using a micrometer caliper at the indicated times. The data represents mean tumour volume ±SEM (B) Effect of Compound A on mean tumour mass. At the end of the experiment (29 days post inoculation of PC3 cells) the mice were sacrificed, the tumours excised and then weighed. The data represents mean tumour weight ±SEM.
# The ability of Compound A to inhibit growth of human tumour cells in vivo was assessed using male athymic mice injected subcutaneously in the dorsal flank region with 2×10^6 PC3 human prostate tumour cells. Compound A administration (3 mg/kg) by intraperitoneal injection commenced after eight days once the PC3 tumour was palpable and continued three times a week until 29 days after the initial inoculation of the tumour cells. At this time all mice were killed and tumours excised and weighed.
# [2] = test system: THP-1 monocytic leukemia cells; assay: Differentiation of THP-1 leukemic cells, morphology by phase contrast microscopy; format: cell-based, human; conditions: THP-1, 10 nM, prolonged exposure (4 days)
# Description: THP-1 cells were cultured for 4 days in the presence or absence of 10 nM Compound A as indicated. Where shown cells were also treated with IFNγ (100 ng/ml) (3 days) or with PMA (0.1 μM) (4 days) in the presence or absence of Compound A. Images are of cells visualised by phase contrast microscopy (magnification×200).
# (§1) This is a morphology highly characteristic of mature macrophages and similar morphological effects were observed when the cells were treated with other known inducers of macrophage differentiation including interferon-γ (IFNγ) or phorbol 12-myristate 13-acetate (PMA). To investigate this further the effects of Compound A on HL60 human promyelocytic leukemic cells (Collins, et al, Nature, 1977, 270:347-9) were examined (Table 11). This widely used cell line is well characterised as a model of human myelomonocytic differentiation (Collins, Blood, 1987, 70(5):1233-44). In this experiment monocytic differentiation was quantitated by measuring CD14 surface antigen expression by flow cytometric analysis CD14, all LPS-binding protein, is expressed on the surface of cells of the myelomonocytic lineage and is normally expressed at very low levels in undifferentiated HL60 cells (Ferrero et al., Blood, 1983, 61(1):171-9).
# THP-1 cells = assay: WST-1 reduction by THP-1 cells; format: cell-based, human; conditions: Homo sapiens
# Description: (a) Compounds A and B were identified from a bark sample of Aglaia leptantha through their ability to inhibit production of Tumour Necrosis Factor-α (TNF-α) by THP-1 human promonocytic leukemia cells (Tsuchiya, et al, Int. J. Cancer, 1980, 26(2):171-6) activated with lipopolysaccharide (LPS). Table 4 summarises the results comparing the activity of Compounds A and B for inhibition of TNF-α production to their effects on general cell metabolism measured using WST-1 reduction, DNA synthesis and protein synthesis assays for THP-1 cells. […] For comparison, the effects of Compounds A and B on A549 lung epithelial carcinoma cells (Leiber et al, Int. J. Cancer, 1976, 17(1)-62-70) were also measured and the data is also included in Table 4.
# [3] = test system: HL60 human promyelocytic leukemic cells; assay: Monocytic differentiation, CD14 surface antigen expression by flow cytometry; format: cell-based; conditions: 4 days
# Description: as §1
# K562 leukemic cells = assay: DNA content analysis (cell cycle) of K562 leukemic cells; format: cell-based, human; conditions: K562, 10-15 nM, 3 days
# Description: K562 cells were cultured for 3 days with the indicated concentration of Compounds A or B then collected and fixed in 70% ethanol prior to staining with propidium iodide and DNA content determined by flow cytometry. The numbers indicate the % of cells in G0/G1, S and G2/M phases of the cell cycle respectively relative to all cells with ≧2N DNA content.
# A549 = assay: Cytostatic activity, relative cell number by YOYO-1 DNA dye; format: cell-based, human
# Description: (b) Compound A was assessed for cytotoxic and cytostatic activity against a panel of cell lines derived from a variety of human tumour types in addition to THP-1 and A549 cells (Table 5). These included K562 leukemic cells (Lozzio and Lozzio, 1975, Blood 45:321-34), PC3 prostate tumour cells (Kaighn et al., 1979, Invest. Urol. 17:16-23) and SF268 glioblastoma cells (Westphal et al, 1985, Biochem. Biophys. Res. Commun., 132:284-9). […] However, the cytotoxic potency of Compound A increased dramatically after 6 days of culture for the K562, A549 and SF268 cells.
# A549 cells = assay: Effect on camptothecin- and paclitaxel-induced cytotoxicity, YOYO-1 exclusion; format: cell-based, human; conditions: A549, 10 nM Compound A, 3 days, drugs at up to 2000-fold excess
# Description: A549 cells in 96 well plates were cultured for 3 days in the presence or absence of 10 nM Compound A together with the indicated concentrations of (A) camptothecin or (B) paclitaxel. Loss of membrane integrity was then assessed by the addition of the fluorescent DNA-binding dye YOYO-1 and the increased fluorescence accompanying cell death measured using a fluorescent plate reader.
# To further examine the cell cycle effects of Compound A a cytostatic concentration of this compound was combined together with other anti-cancer agents known to act at specific points in the cell cycle to see if Compound A could perturb their cell cycle-dependent effects. Cell viability was assayed after 3 days by measuring exclusion of the fluorescent DNA-binding dye YOYO-1. (Becker et al., Anal Biochem, 1994, 221(1):78-84). A549 cells were treated with 10 nM non-cytotoxic dose of Compound A in the presence of increasing concentrations of camptothecin and paclitaxel. Camptothecin is an inhibitor of DNA topoisomerase 1, an enzyme required for DNA replication, and results in pertubation of the S phase of the cell cycle with subsequent cell death due to activation of an S phase checkpoint (Darzynkiewicz et al., Ann N Y Acad Sci, 1996, 803:93-100). […]
structure (smiles),measurement,setting,value
"COC(=O)[C@H]1[C@@H](O)[C@@]2(O)c3c(OC)cc(OC4OC(C(O)CO)COC4OC)cc3O[C@@]2(c2ccc(OC)cc2)[C@@H]1c1ccccc1 (single isomer, unassigned) [Compound A]",reduction of mean tumour weight,[1]; 29 days post inoculation,~60%
same,mean tumour volume,[1]; vs vehicle,greatly reduced increase in mean tumour volume
same,morphology (macrophage differentiation),[2],accumulation of cells that adhered to the plastic and exhibited numerous pseudopodia
same,IC50,"THP-1 cells; THP-1, 18 h, THP-1 cells, 18 hours of culture, read-out: IC50 WST-1 Reduction",30 nM
same,IC50,"THP-1 cells; THP-1, 72 h, THP-1 leukemic cells, cultured with compound for 3 days, read-out: IC50 (reduction of WST-1)",2 nM
same,% cells expressing CD14,"[3]; HL60, 5 nM",3.3%
same,% cells expressing CD14,"[3]; HL60, 10 nM",5.7%
same,% cells expressing CD14,"[3]; HL60, 25 nM",46.0%
same,% cells expressing CD14,"[3]; HL60, 50 nM",43.0%
same,CD14 expression in viable HL60 cells,[3]; doses greater than 10 nM,significantly enhanced CD14 expression
same,cell cycle phase accumulation,K562 leukemic cells,characteristic accumulation of cells in G2/M phases of the cell cycle
same,GI50,"A549; Homo sapiens, A549, 72 h, read-out: GI50 (3 day cultures), A549, lung",7 nM
same,GI50,"A549; read-out: GI50 (3 day cultures), A549, lung",13 nM
same,effect on cytotoxicity of camptothecin and paclitaxel,A549 cells,significantly reduced the cytotoxic effects of both camptothecin and paclitaxel
